Measurements taken from patent publication US9334259B2, “Aryloxyacetamide compound and pesticide” (Nippon Soda Co., Ltd., priority 2012, dated 2016).

Test system: acaricide-resistant adult female Aculops pelekassi
Assay: Efficacy test against Aculops pelekassi (mandarin orange leaf)
Assay type: in vivo
Conditions: 125 ppm emulsion sprayed
Protocol: Twenty acaricide-resistant adult female Aculops pelekassi acarus were inoculated onto a mandarin orange leaf placed in a Petri dish. Next, an emulsion was prepared having the formula indicated in the aforementioned Preparation example 2. This emulsion was diluted with water to a compound concentration of 125 ppm after which the diluted liquids were sprayed onto the mandarin orange leaf with a rotary spraying tower. The mandarin orange leaf was then placed in a temperature-controlled room at a temperature of 25° C. and a humidity of 65%. The life and death of the adult insects were investigated 3 days after the spraying. The development from eggs laid to adult was investigated 10 days after the spraying.

## CCC(Oc1cc(Br)c(Cl)c(Br)c1)C(=O)NC(C)(C)c1ncccn1 (centres unmarked) [Compound No. 1-14]
3 days after spraying
  insect mortality rate after 3 days: ≥ 90%
10 days after spraying
  insect mortality rate after 10 days: ≥ 90%
